From ChEMBL document CHEMBL1156829 (Proc Natl Acad Sci U S A, 2008)
pEC50: −log10 of the molar value.

Experiments:
[1] = tested on: Plasmodium falciparum; experiment: NOVARTIS: Inhibition of Plasmodium falciparum 3D7 (drug-susceptible) proliferation in erythrocyte-based infection assay; assay type: functional, organism-based; details: Plasmodium falciparum, 3D7
[2] = tested on: Plasmodium falciparum; experiment: NOVARTIS: Inhibition of Plasmodium falciparum W2 (drug-resistant) proliferation in erythrocyte-based infection assay; assay type: functional, organism-based; details: Plasmodium falciparum, W2; read-out: EC50
[3] = NOVARTIS: Cytotoxicity against human hepatocellular carcinoma cell line (Huh7); assay type: toxicity, cell-based, Huh-7; details: Huh7 cells (hepatocellular carcinoma cell line)

Compound	pEC50 [1]	pEC50 [2]	CC50 [3]
Cc1ccc(N=C2NC(=O)/C(=C/c3cc(C)n(-c4cccc([N+](=O)[O-])c4)c3C)S2)cc1	6.45	6.01	> 100000 nM
CS/C(Cl)=C(/NC(C)=O)[P+](c1ccccc1)(c1ccccc1)c1ccccc1.[O-][Cl+3]([O-])([O-])[O-]	6.94	7.00	> 10000 nM
CCCC[C@@H](C)[C@@H](O)[C@H]1C(=O)N[C@@H](C(C)C)C(=O)N(C)[C@H](SC)C(=O)N(C)[C@@H](CC(C)C)C(=O)N[C@@H](C(C)C)C(=O)N(C)[C@@H](CC(C)C)C(=O)N[C@@H](C)C(=O)N[C@H](C)C(=O)N(C)[C@@H](CC(C)C)C(=O)N(C)[C@@H](CC(C)C)C(=O)N(C)[C@@H](C(C)C)C(=O)N1C	7.49	7.29	5180 nM
O=C1c2cc([N+](=O)[O-])ccc2-n2c1nc1ccccc1c2=O	6.83	7.00	> 10000 nM
Cc1ccc(NC(=S)NCCO)cc1C	5.74	5.99	> 100000 nM
COc1ccc(C=Cc2cc[n+](C)cc2)cc1OC	5.74	6.00	> 100000 nM
CC(C)(C)C1CCc2[nH]c3ccccc3c(=O)c2C1 (configuration not stated)	6.07	6.01	> 100000 nM
NCCCNC(=O)COC(c1ccccc1)c1cccnc1Cl (configuration not stated)	7.09	7.00	> 10000 nM
O=C(Cc1ccccc1)NCc1nnc(SCC(=O)N2N=C(c3cccs3)CC2c2ccc(F)cc2)n1Cc1ccccc1 (configuration not stated)	5.05	6.01	> 100000 nM
CCC(C)NC(=O)c1cc(NC(=O)/C=C/c2ccc([N+](=O)[O-])cc2)ccc1N1CCN(c2ccccc2OC)CC1 (configuration not stated)	< 5.90	7.27	5550 nM
CC(=O)OC1(C)CC(C)C(=O)C(C(O)CC2CC(=O)NC(=O)C2)C1 (configuration not stated)	7.13	7.23	> 5890 nM
CC(Cl)=CC[N+]1(CC#Cc2cccc3ccccc23)CCOCC1	5.94	6.00	> 100000 nM
CCCN1CCc2c(sc3nc(SCC(=O)c4ccccc4)nc(N)c23)C1	5.85	6.00	> 100000 nM
CCOC(=O)C1=C(C)NC2=C(C(=O)C(C(=O)OCC)C(c3ccccc3OC)C2)C1c1ccc(Cl)cc1 (configuration not stated)	5.27	6.00	> 100000 nM
Cc1cc(Nc2ccc(Cl)c(C)c2)n2nc(C)nc2n1	6.01	6.00	> 100000 nM
CN1CC=C(/C=C/c2c[nH]c3ccccc23)CC1	6.32	7.00	> 10000 nM
O=C(COc1cccc2ccccc12)NC1CCS(=O)(=O)C1 (configuration not stated)	< 4.90	6.00	> 100000 nM
COc1cc(NCc2cnc(N)nc2N)cc(OC)c1	6.48	7.00	> 10000 nM
CNCC(O)c1ccc(Cl)c(Cl)c1 (configuration not stated)	6.08	7.00	> 10000 nM
COc1ccc(S(=O)(=O)N2CCN(C(=S)NC3CCCCC3)CC2)cc1	5.07	6.00	> 100000 nM
CNC1=C(N(Cc2ccc(Cl)c(Cl)c2)C(C)=O)C(=O)c2ccccc2C1=O	8.91	8.90	126 nM
COc1cc(NC(C)CCCN(Cc2ccc(OC)c(OC)c2)C(=O)c2ccccc2)c2ncccc2c1 (configuration not stated)	6.28	6.99	> 10000 nM
Cc1noc(C)c1S(=O)(=O)N(Cc1ccccc1)CC(O)CN1CCC(NC(=O)c2ccccc2Cl)C1 (configuration not stated)	6.59	7.00	> 10000 nM

Compound	pEC50 [1]	pEC50 [2]	CC50 [3]
COc1ccc(NC(=O)Cn2ncc3ccccc32)cc1OC	< 5.90	6.01	> 100000 nM
C=CCNC(=O)c1cc2c(=O)n3cccc(C)c3nc2n(CCc2ccccc2)c1=N	6.15	6.01	> 100000 nM
Cc1ccnc(Nc2nc(-c3c(C)nc4sccn34)cs2)c1	5.82	6.12	> 73400 nM
CC(CN1CCC(n2cc(C(=O)N3CCCC3)nn2)CC1)c1ccccc1 (configuration not stated)	5.62	5.99	> 100000 nM
Cc1cccc(NS(=O)(=O)c2ccc3[nH]c(=O)ccc3c2)c1C	< 4.90	6.08	81800 nM
Cc1ccc(Cn2c(=N)n(CC(O)c3ccc(Cl)c(Cl)c3)c3ccccc32)cc1 (configuration not stated)	6.97	7.21	6000 nM
CC(C)(C)OC(=O)N1CCC(c2c(C(=O)Nc3cccc(C(F)(F)F)c3)cnn2-c2ccc(F)cc2F)CC1	5.90	6.00	> 100000 nM
CCOc1ccc(Nc2ccnc3cc(Cl)ccc23)cc1	6.02	6.01	> 100000 nM
C=CC1CN2CCC1CC2[C@H](c1ccnc2ccccc12)S(=O)(=O)O (some centres not stated)	6.82	7.01	> 10000 nM
COc1ccccc1C(c1nnnn1Cc1ccc(F)cc1)N1CCN(C)CC1 (configuration not stated)	4.93	6.01	> 100000 nM
Brc1ccc2[nH]c3c(NCCCN4CCOCC4)ncnc3c2c1	6.44	6.02	> 98700 nM
O[C@@]1(c2cc3ccccc3s2)CN2CCC1CC2	6.75	6.99	> 10000 nM
CCCCOc1cccc(C(=O)N(Cc2cccs2)c2ccc(OC)cc2)c1	6.91	7.21	6130 nM
O=C(C=Cc1ccccc1)NNC(=O)c1cccnc1	< 4.90	6.00	> 100000 nM
COc1cccc(C(=O)C[n+]2cc(-c3ccc(Cl)cc3)n3c2CCC3)c1	5.76	6.01	> 100000 nM
CCCCCCOc1ccc(NC(=O)c2cccs2)cc1	6.40	6.01	> 100000 nM
CCOC(=O)c1cc(-c2ccc(C)cc2)n(CCC(=O)Nc2cccc(C(F)(F)F)c2)c1C	6.08	6.49	33700 nM
CCc1ccc(C(=O)C[n+]2cc(-c3ccc(C)cc3)n3c2CCC3)cc1	6.12	6.48	32700 nM
N#CC(=Cc1cn(Cc2ccc(Cl)cc2Cl)c2ccccc12)c1nc2ccccc2[nH]1	6.57	5.99	> 100000 nM
CC[n+]1c(/C=C/c2ccc(SC)cc2)ccc2ccccc21	7.36	6.99	> 10000 nM
CN(C)CCN(C)Cc1cc(Br)cs1	< 5.63	5.99	> 100000 nM
CCC(Sc1nnc(-c2ccc(C)cc2)c(-c2ccc(C)cc2)n1)C(=O)NCCOC (configuration not stated)	6.32	6.12	77000 nM
CCCCCCN(C(=O)COCc1ccccc1)C(CC)c1nc2ccccc2c(=O)n1-c1cccc(Cl)c1 (configuration not stated)	7.37	7.12	> 7770 nM

Compound	pEC50 [1]	pEC50 [2]	CC50 [3]
O=C(Nc1ccccc1)NC1CC2CCCC(C1)N2CCc1ccccc1 (configuration not stated)	6.81	7.01	> 10000 nM
C(#Cc1ccccc1)C[N+]1(CCOc2ccccc2)CCCCC1	5.84	6.01	> 100000 nM
CC(C)(C)CC(C)(C)Nc1c(-c2ccccc2OC(=O)c2ccccc2F)nc2ccccn12	5.88	7.01	> 10000 nM
O=C1c2ccccc2-c2nc3nnnn3nc21	6.62	7.01	> 10000 nM
CN1CCCC1CCNCc1cc(-c2ccnc3cc(Cl)ccc23)ccc1O (configuration not stated)	7.50	6.82	15200 nM
CCN(CC)CCCN(Cc1cc2c(C)cc(C)cc2[nH]c1=O)C(=S)NCCCN(C)C	5.68	6.00	> 100000 nM
CN1CCCC1CCNc1ncc(C(=O)NCc2ccccc2)c(NCC2CCCCC2)n1 (configuration not stated)	7.26	7.00	> 10000 nM
Nc1ccc2nc(-c3cccc(-c4nc5ccc(N)cc5s4)c3)sc2c1	6.55	6.00	> 100000 nM
Cc1cccc(NC(=O)c2sc3nc4c(c(-c5cccs5)c3c2N)CCCCC4)c1	< 4.90	6.00	> 100000 nM
OC(CNCC1COc2ccccc2O1)c1ccccc1 (configuration not stated)	< 4.91	6.00	> 100000 nM
O=C(CCl)Nc1ccc(N2CCCCC2)cc1	6.10	6.38	41200 nM
O=c1c2c([nH]c3ccccc13)CCCC2	6.20	6.00	> 100000 nM
CC(=O)NC1=NN(C(C)=O)C(c2ccc(Br)cc2)S1 (configuration not stated)	< 5.12	6.01	> 100000 nM
Oc1ccccc1-c1nc2ncccn2c1Nc1cccc(C(F)(F)F)c1	5.67	5.99	> 100000 nM
COc1cc(NC(C)CCCN(Cc2ccc(N(C)C)cc2)C(=O)C(Cl)Cl)c2ncccc2c1 (configuration not stated)	6.02	7.18	> 6790 nM
O=c1c2sccc2nc(SCc2cccc([N+](=O)[O-])c2)n1-c1ccc(Br)cc1	5.48	5.99	> 100000 nM
COc1ccc(-c2c[n+](Cc3ccccc3Cl)c3n2CCC3)cc1	6.24	6.27	52500 nM
N#Cc1c(N)nc(SCC(=O)c2ccc(Br)cc2)c(C#N)c1-c1ccccc1	6.24	6.25	> 56600 nM
COc1ccc(S(=O)(=O)N=C2C=C(Nc3ccccc3)C(=O)c3ccccc32)cc1	7.03	6.91	12000 nM
COc1ccc(OC)c(-c2ccc(O)c(CNC3CCCCCC3)c2)c1	6.44	7.01	> 10000 nM
O=C(N/C(=C/C=C/c1ccccc1)C(=O)N1CCOCC1)c1ccccc1	< 5.90	7.01	> 10000 nM
O=C(O)c1ccc2c(c1)N=CN(C1CCCCC1)C2	6.57	7.01	> 10000 nM
C=Cc1cc2ccccc2c2cc3c(cc12)C[N+](C)(C)C3	6.18	6.01	> 100000 nM
